Experimental data as given in paper PMC9080333 (RSC Advances, 2018).
In brackets after ≈: the same amount, converted by molar mass.

Columns and labels:
[1] = tested on: Mycobacterium tuberculosis H37Rv; experiment: In vitro MTB Microplate Alamar Blue Assay; assay type: cell-based
RAW 264.7 cells = conditions: RAW 264.7 cell line, MTT assay, 50 μg mL^−1, 48 h incubation
[2] = Mycobacterium tuberculosis, H37RV, M. tuberculosis H37Rv, MABA, average of duplicates
[3] = against MTB, in vitro (conclusion)
[4] = Mycobacterium tuberculosis, H37RV, 168 h, M. tuberculosis H37Rv, MABA, average of duplicates
[5] = M. tuberculosis H37Rv, MABA, average of duplicates

Row | Structure (SMILES) | MIC [1, 2] | Cytotoxicity in % inhibition at 50 μg mL^−1 (RAW 264.7 cells) | further results
1 | Cc1ccc2c(c1)C=CC1(CCc3c(nnn3-c3ccccc3)C1)O2 (centres unmarked) [Compound 7a, 6′-Methyl-1-phenyl-1,4,6,7-tetrahydrospiro[benzo[d][1,2,3]triazole-5,2′-chromene]] | 4.74 µM (≈ 1.56 µg/mL) | 30.23% | MIC [1, 3]: 1.56 µg
2 | Cc1ccc(-n2nnc3c2CCC2(C=Cc4cc(C)ccc4O2)C3)cc1 (centres unmarked) [Compound 7b, 6′-Methyl-1-(p-tolyl)-1,4,6,7-tetrahydrospiro[benzo[d][1,2,3]triazole-5,2′-chromene]] |  |  | MIC [1, 4]: 75.8 µM (≈ 26 µg/mL)
3 | Cc1ccc2c(c1)C=CC1(CCc3c(nnn3-c3ccc(Cl)cc3)C1)O2 (centres unmarked) [Compound 7c, 1-(4-Chlorophenyl)-6′-methyl-1,4,6,7-tetrahydrospiro[benzo[d][1,2,3]triazole-5,2′-chromene]] | 34.4 µM (≈ 12.5 µg/mL) |  | 
4 | COc1ccc(-n2nnc3c2CCC2(C=Cc4cc(C)ccc4O2)C3)cc1 (centres unmarked) [Compound 7d, 1-(4-Methoxyphenyl)-6′-methyl-1,4,6,7-tetrahydrospiro[benzo[d][1,2,3]triazole-5,2′-chromene]] | 4.34 µM (≈ 1.56 µg/mL) | 33.14% | MIC [1, 3]: 1.56 µg
5 | Cc1ccc2c(c1)C=CC1(CCc3c(nnn3Cc3ccccc3)C1)O2 (centres unmarked) [Compound 7e, 1-Benzyl-6′-methyl-1,4,6,7-tetrahydrospiro[benzo[d][1,2,3]triazole-5,2′-chromene]] |  |  | MIC [1, 4]: 75.8 µM (≈ 26 µg/mL)
6 | Clc1ccc2c(c1)C=CC1(CCc3c(nnn3-c3ccccc3)C1)O2 (centres unmarked) [Compound 7f, 6′-Chloro-1-phenyl-1,4,6,7-tetrahydrospiro[benzo[d][1,2,3]triazole-5,2′-chromene]] | 17.9 µM (≈ 6.26 µg/mL) | 21.41% | 
7 | Cc1ccc(-n2nnc3c2CCC2(C=Cc4cc(Cl)ccc4O2)C3)cc1 (centres unmarked) [Compound 7g, 6′-Chloro-1-(p-tolyl)-1,4,6,7-tetrahydrospiro[benzo[d][1,2,3]triazole-5,2′-chromene]] | 68.9 µM (≈ 25.1 µg/mL) |  | 
8 | Clc1ccc(-n2nnc3c2CCC2(C=Cc4cc(Cl)ccc4O2)C3)cc1 (centres unmarked) [Compound 7h, 6′-Chloro-1-(4-chlorophenyl)-1,4,6,7-tetrahydrospiro[benzo[d][1,2,3]triazole-5,2′-chromene]] | 65.3 µM (≈ 25.1 µg/mL) |  | 
9 | COc1ccc(-n2nnc3c2CCC2(C=Cc4cc(Cl)ccc4O2)C3)cc1 (centres unmarked) [Compound 7i, 6′-Chloro-1-(4-methoxyphenyl)-1,4,6,7-tetrahydrospiro[benzo[d][1,2,3]triazole-5,2′-chromene]] | 4.11 µM (≈ 1.56 µg/mL) | 29.36% | MIC [1, 3]: 1.56 µg
10 | Clc1ccc2c(c1)C=CC1(CCc3c(nnn3Cc3ccccc3)C1)O2 (centres unmarked) [Compound 7j, 1-Benzyl-6′-chloro-1,4,6,7-tetrahydrospiro[benzo[d][1,2,3]triazole-5,2′-chromene]] | 34.4 µM (≈ 12.5 µg/mL) |  | 
11 | Cc1cc2c(cc1Cl)C=CC1(CCc3c(nnn3-c3ccccc3)C1)O2 (centres unmarked) [Compound 7k, 6′-Chloro-7′-methyl-1-phenyl-1,4,6,7-tetrahydrospiro[benzo[d][1,2,3]triazole-5,2′-chromene]] | 8.6 µM (≈ 3.13 µg/mL) | 24.90% | MIC [1, 5]: 8.60 µM (≈ 3.13 µg/mL)
12 | Cc1ccc(-n2nnc3c2CCC2(C=Cc4cc(Cl)c(C)cc4O2)C3)cc1 (centres unmarked) [Compound 7l, 6′-Chloro-7′-methyl-1-(p-tolyl)-1,4,6,7-tetrahydrospiro[benzo[d][1,2,3]triazole-5,2′-chromene]] |  |  | MIC [1, 4]: 69 µM (≈ 26.1 µg/mL)
13 | Cc1cc2c(cc1Cl)C=CC1(CCc3c(nnn3-c3ccc(Cl)cc3)C1)O2 (centres unmarked) [Compound 7m, 6′-Chloro-1-(4-chlorophenyl)-7′-methyl-1,4,6,7-tetrahydrospiro[benzo[d][1,2,3]triazole-5,2′-chromene]] | 7.67 µM (≈ 3.05 µg/mL) | 24.76% | MIC [1, 5]: 7.87 µM (≈ 3.13 µg/mL)
14 | COc1ccc(-n2nnc3c2CCC2(C=Cc4cc(Cl)c(C)cc4O2)C3)cc1 (centres unmarked) [Compound 7n, 6′-Chloro-1-(4-methoxyphenyl)-7′-methyl-1,4,6,7-tetrahydrospiro[benzo[d][1,2,3]triazole-5,2′-chromene]] | 15.9 µM (≈ 6.26 µg/mL) | 22.64% | 
15 | Cc1cc2c(cc1Cl)C=CC1(CCc3c(nnn3Cc3ccccc3)C1)O2 (centres unmarked) [Compound 7o, 1-Benzyl-6′-chloro-7′-methyl-1,4,6,7-tetrahydrospiro[benzo[d][1,2,3]triazole-5,2′-chromene]] | 66.3 µM (≈ 25.1 µg/mL) |  | 
16 | CC[C@@H](CO)NCCN[C@@H](CC)CO [Ethambutol, reference compound] | 7.64 µM (≈ 1.56 µg/mL) |  | 
17 | NNC(=O)c1ccncc1 [Isoniazid, reference compound] | 0.437 µM (≈ 0.0599 µg/mL) |  | 
18 | CO[C@H]1/C=C/O[C@@]2(C)Oc3c(C)c(O)c4c(O)c(c(/C=N/N5CCN(C)CC5)c(O)c4c3C2=O)NC(=O)/C(C)=C\C=C\[C@H](C)[C@H](O)[C@@H](C)[C@@H](O)[C@@H](C)[C@H](OC(C)=O)[C@@H]1C [Rifampicin, reference compound] | 0.5 µM (≈ 0.411 µg/mL) |  | MIC [1, 5]: 0.50 µM (≈ 0.411 µg/mL)
19 | NC(=O)c1cnccn1 [pyrazinamide, reference compound] | 50.8 µM (≈ 6.25 µg/mL) |  | 
